Assay [1] concerns Mycolicibacterium smegmatis. As to the kind of experiment: Antimycobacterial activity against Mycobacterium smegmatis MC2 155 after 3 days by broth macrodilution method. In kind it is functional. The note with it: str. MC2 155, 72 h.
For another assay, the system named is Staphylococcus aureus. Put plainly: Antibacterial activity against methicillin-resistant Staphylococcus aureus USA300 by broth microdilution method.

Usually MIC stands for the lowest concentration that inhibits growth of the organism.

Converted amounts (≈) assume the structure as drawn.

In the case of `CC1(C)S[C@@H]2[C@H](NC(=O)C(C(=O)O)c3ccccc3)C(=O)N2[C@H]1C(=O)O` (stereo partly drawn) [CARBENICILLIN], the MIC in assay [1] was determined as 512 µg/mL (≈ 1350 µM).

Regarding `CO[C@@]1(NC(=O)Cc2cccs2)C(=O)N2C(C(=O)O)=C(COC(N)=O)CS[C@@H]21` [CEFOXITIN], the MIC in assay [1] fell in the range of 2 to 4 µg/mL (≈ 4.68 to 9.36 µM).

In turn, `CO/N=C(\C(=O)N[C@@H]1C(=O)N2C(C(=O)O)=C(CSc3nc(=O)c(O)nn3C)CS[C@H]12)c1csc(N)n1` [CEFTRIAXONE] displayed an MIC in assay [1] of 32 µg/mL (≈ 57.7 µM).

Take `N[C@@H]1CONC1=O` [CYCLOSERINE]: the lowest concentration to inhibit growth in assay [1] (MIC) was 105 µg/mL (≈ 1030 µM).

Take `Cc1onc(-c2ccccc2)c1C(=O)N[C@@H]1C(=O)N2[C@@H]1SC(C)(C)[C@@H]2C(=O)O` [OXACILLIN]: the minimal inhibitory concentration (MIC) against Staphylococcus aureus is 16 to 32 µg/mL (≈ 39.9 to 79.7 µM); in assay [1] it was 32 µg/mL (≈ 79.7 µM).

With `CN[C@H](CC(C)C)C(=O)N[C@H]1C(=O)N[C@@H](CC(N)=O)C(=O)N[C@H]2C(=O)N[C@H]3C(=O)N[C@H](C(=O)N[C@H](C(=O)O)c4cc(O)cc(O)c4-c4cc3ccc4O)[C@H](O)c3ccc(c(Cl)c3)Oc3cc2cc(c3O[C@@H]2O[C@H](CO)[C@@H](O)[C@H](O)[C@H]2O[C@H]2C[C@](C)(N)[C@H](O)[C@H](C)O2)Oc2ccc(cc2Cl)[C@H]1O` [VANCOMYCIN], the minimum inhibitory concentration (MIC) against Staphylococcus aureus is 0.25 to 2 µg/mL (≈ 0.173 to 1.38 µM); in assay [1], 45 µg/mL (≈ 31.1 µM).
